From patent US5646042A, “C-myb targeted ribozymes” (Ribozyme Pharmaceuticals, Inc., priority 1995, dated 1997)

Test system: rat smooth muscle cells
Assay: Serum-stimulated rat smooth muscle cell proliferation (BrdU incorporation)
Type: cell-based
Conditions: for % cell proliferation: no ribozyme; for augmentation of ribozyme inhibition of smooth muscle cell proliferation: 0.2 μM ribozyme 575 12/12 complexed with DMRIE/DOPE at 1:1 charge ratio
Method: The ribozymes that cleaved c-myb RNA described above were assayed for their effect on smooth muscle cell proliferation. Rat vascular smooth muscle cells were isolated and cultured as follows. Aortas from adult Sprague-Dawley rats were dissected, connective tissue was removed under a dissecting microscope, and 1 mm^2 pieces of the vessel were placed, intimal side up, in a Petri dish in Modified Eagle's Medium (MEM) with the following additives: 10% FBS, 2% tryptose phosphate broth, 1% penicillin/streptomycin and 2 mM L-Glutamine. The smooth muscle cells were allowed to migrate and grow to confluence over a 3-4 week period. These primary cells were frozen and subsequent passages were grown at 37° C. in 5% CO2 in Dulbecco's modified Eagle's medium (DMEM), 10% fetal bovine serum (FBS), and the following additives: 2 mM L-Glutamine, 1% penicillin/streptomycin, 1 mM sodium pyruvate, non-essential amino acids (0.1 mM of each amino acid), and 20 mM Hepes pH 7.4. Cells passed four to six times were used in proliferation assays. For the cell proliferation assays, 24-well tissue culture plates were prepared by coating the wells with 0.2% gelatin and washing once with phosphate-buffered saline (PBS). RASMC were inoculated at 1×10^4 cells per well in 1 ml of DMEM plus 10% FBS and additives and incubated for 24 hours. The cells were subconfluent when plated at this density. The cells were serum-starved by removing the medium, washing once with PBS, and incubating 48-72 hours in DMEM containing 0.5% FBS plus additives.
Serum-starved smooth muscle cells were washed twice with PBS, and the RNA/lipid complex was added. The plates were incubated for 4 hours at 37° C. The medium was then removed and DMEM containing 10% FBS, additives and 10 μM bromodeoxyuridine (BrdU) was added. In some wells, FBS was omitted to determine the baseline of unstimulated proliferation. The plates were incubated at 37° C. for 20-24 hours, fixed with 0.3% H2 O2 in 100% methanol, and stained for BrdU incorporation by standard methods. In this procedure, cells that have proliferated and incorporated BrdU stain brown; non-proliferating cells are counter-staineda light purple. Both BrdU positive and BrdU negative cells were counted under the microscope. 300-600 total cells per well were counted. In the following experiments, the percentage of the total cells that have incorporated BrdU (% cell proliferation) is presented. […] Percent inhibition then is calculated from the % cell proliferation values as follows: % inhibition=100-100((Ribozyme-0% serum)/(Control-0% serum)).
These include, but are not limited to, ammonium chloride, carbonyl cyanide p-trifluoromethoxy phenyl hydrazone (FCCP), chloroquine, monensin, colchicine, and viral particles (Cotten, M. et al., 1990, Proc. Natl. Acad. Sci. USA, 87, 4033-4037; Cotten, M. et al., 1993, J. Virol., 67, 3777-3785; Cotten, M. et al., 1992, Proc. Natl. Acad. Sci USA, 89, 6094-6098; Cristiano, R. J. et al., 1993, Proc. Natl. Acad. Sci. U S A, 90, 2122-6; Cudel, D. T. et al., 1991, Proc. Nat. Acad. Sci., USA, 88, 8850-8854; Ege, T. et al., 1984, Exp. Cell Res., 155, 9-16; Harris, C. E. et al., 1993, Am. J. Respir. Cell Mol. Biol., 9, 441-7; Seth, P. et al., 1994, J. Virol., 68, 933-40; Zenke, M. et al., 1990, Proc. Natl. Acad. Sci. USA, 87, 3655-3659). […] To determine whether such agents may augment the functional delivery of RNA and ribozymes to smooth muscle cells, the effects of chloroquine on ribozyme inhibition of smooth muscle cell proliferation were assessed. […]

CCN(CC)CCCC(C)Nc1ccnc2cc(Cl)ccc12 (centres unmarked) [chloroquine]
% cell proliferation (10 μM chloroquine added upon stimulation, stimulation with 10% serum): 80.5±1.5%
augmentation of ribozyme inhibition of smooth muscle cell proliferation (10 μM chloroquine): two- to three-fold
augmentation of ribozyme inhibition of smooth muscle cell proliferation (10 μM chloroquine, listed as Chloroquine): 2- to 3 fold
effect of chloroquine on untreated cells (proliferation) (10 μM chloroquine, cells without ribozyme): no effect
% cell proliferation (10 μM chloroquine, unstimulated cells): 7±0.5%
